One may read the AC50 as the concentration giving half of the maximal activity seen. One may read the EC50 as the midpoint of the concentration-response curve.

“And” between values parts separate entries of the source, which are not always exact repeats. Equal entries are not always repeated. The source made the active and inactive calls. Bounds are passed on as bounds.

This is an account of results in ChEMBL document CHEMBL1201862, “PubChem BioAssay data set” (2004).

Assay [1] deals with Cytochrome P450 2C19 (Homo sapiens, UniProt P33261). The experiment in a line: Cytochrome panel assay with activity outcomes. Panel member name: p450-cyp2c19 Compounds with AC50 equal or less than 10 uM are considered active. The format is functional. The following applies: read-out: AC50.
Assay [2] deals with Cytochrome P450 2C9 (Homo sapiens, UniProt P11712).
A short description of assay [3]: inhibitors of intracellular T. cruzi replication, confirmation, NIH3T3 host cells, beta-gal luminescence (AID 2044).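 Also: intracellular parasites grown in NIH/3T3 mouse fibroblasts as host cells; luminescent beta-galactosidase reporter signal from transgenic T. cruzi replicating inside host cells; inhibitors lower the luminescence signal.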 The class given is functional, cell-based.
The nature of assay [4]: Luminescence Cell-Based Dose Retest to Confirm Inhibitors of Cancer Stem Cells. [Related pubchem assays (depositor defined):AID2717, AID2721]. The format is functional. Conditions: Homo sapiens.
Assay [5] in a line: cytotoxicity toward NIH3T3 fibroblasts, dose response, counter-screen, cell-based, ATP luminescence, mouse fibroblasts (AID 2010).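 Also: cells exposed to compound for about 90 hours before reading.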 The class given is functional. A general note: The purpose of a counterscreen is to sort out artefacts and off-target activity.
Assay [6] concerns the target T1, Cytochrome P450 1A2 (Homo sapiens, UniProt P05177).
T1 sequence (P05177 whole entry): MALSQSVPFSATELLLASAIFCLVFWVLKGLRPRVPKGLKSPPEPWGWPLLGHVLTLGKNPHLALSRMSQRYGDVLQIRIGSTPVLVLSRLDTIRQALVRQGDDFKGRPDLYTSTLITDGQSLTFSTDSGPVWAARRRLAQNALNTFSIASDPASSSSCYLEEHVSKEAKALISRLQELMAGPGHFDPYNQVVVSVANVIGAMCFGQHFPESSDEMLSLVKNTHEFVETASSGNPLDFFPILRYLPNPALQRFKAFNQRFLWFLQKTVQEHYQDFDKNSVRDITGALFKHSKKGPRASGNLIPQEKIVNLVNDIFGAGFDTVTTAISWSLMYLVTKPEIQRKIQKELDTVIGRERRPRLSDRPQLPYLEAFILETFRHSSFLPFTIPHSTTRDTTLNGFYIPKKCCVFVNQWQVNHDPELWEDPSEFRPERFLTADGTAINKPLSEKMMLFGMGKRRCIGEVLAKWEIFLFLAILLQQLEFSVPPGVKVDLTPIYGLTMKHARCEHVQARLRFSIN

Assay [7] concerns the target Cytochrome P450 3A4 (Homo sapiens, UniProt P08684).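 Also: CYP3A4 tested as one member of a cytochrome P450 panel screen.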
The target in assay [8] is Cytochrome P450 2D6 (Homo sapiens, UniProt P10635).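 Also: CYP2D6 member of a cytochrome P450 panel assay.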
The subject of assay [9] is INS1. The experiment in a line: beta cell apoptosis inhibitors, cytokine rescue, dose response, luminescence, retest (AID 449756).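 Also: cell death triggered by IL-1 beta plus TNF-alpha plus IFN-gamma mixture; protective hits raise ATP signal compared with cytokine alone wells.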 The format is functional, cell-based. Conditions: Rattus norvegicus.
The target in assay [10] is Paired box protein Pax-8 (Homo sapiens, UniProt Q06710). The experiment in a line: inhibitors of PAX8-driven TPO luciferase reporter, dose response, RMG-I cells, cherry-pick (AID 687027).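 Also: luciferase reporter driven by Pax8 target thyroperoxidase promoter measured by SteadyGlo luminescence.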 The format is functional, cell-based. For orientation: A reporter such as luciferase makes a cellular process visible.
Chain of Paired box protein Pax-8 (Q06710 whole entry): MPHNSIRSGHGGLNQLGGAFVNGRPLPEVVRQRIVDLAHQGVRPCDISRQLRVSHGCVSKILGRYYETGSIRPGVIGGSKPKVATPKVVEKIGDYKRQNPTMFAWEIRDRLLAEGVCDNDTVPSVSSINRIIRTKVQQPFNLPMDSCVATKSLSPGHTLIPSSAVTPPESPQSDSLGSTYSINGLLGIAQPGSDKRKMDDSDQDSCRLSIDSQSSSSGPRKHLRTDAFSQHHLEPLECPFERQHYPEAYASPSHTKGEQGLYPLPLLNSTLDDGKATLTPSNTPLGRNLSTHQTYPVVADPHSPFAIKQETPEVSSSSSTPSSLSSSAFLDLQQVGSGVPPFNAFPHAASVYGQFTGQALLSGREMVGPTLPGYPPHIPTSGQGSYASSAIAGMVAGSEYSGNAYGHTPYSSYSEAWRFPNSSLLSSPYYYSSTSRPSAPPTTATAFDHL

Chain of Cytochrome P450 2C19 (P33261 whole entry): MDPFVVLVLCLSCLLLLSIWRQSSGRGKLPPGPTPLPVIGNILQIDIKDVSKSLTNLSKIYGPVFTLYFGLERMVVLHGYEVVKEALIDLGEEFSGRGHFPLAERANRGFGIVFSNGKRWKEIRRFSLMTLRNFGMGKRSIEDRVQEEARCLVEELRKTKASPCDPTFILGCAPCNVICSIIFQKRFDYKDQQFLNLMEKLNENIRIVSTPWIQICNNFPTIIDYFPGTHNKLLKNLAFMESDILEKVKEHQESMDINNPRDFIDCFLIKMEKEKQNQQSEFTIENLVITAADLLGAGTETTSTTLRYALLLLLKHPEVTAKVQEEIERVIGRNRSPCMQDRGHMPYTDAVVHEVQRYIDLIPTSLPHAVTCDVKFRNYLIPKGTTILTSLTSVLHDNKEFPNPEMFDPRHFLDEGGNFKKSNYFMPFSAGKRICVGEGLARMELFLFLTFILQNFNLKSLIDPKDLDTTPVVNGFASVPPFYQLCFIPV
Chain of Cytochrome P450 2C9 (P11712 whole entry): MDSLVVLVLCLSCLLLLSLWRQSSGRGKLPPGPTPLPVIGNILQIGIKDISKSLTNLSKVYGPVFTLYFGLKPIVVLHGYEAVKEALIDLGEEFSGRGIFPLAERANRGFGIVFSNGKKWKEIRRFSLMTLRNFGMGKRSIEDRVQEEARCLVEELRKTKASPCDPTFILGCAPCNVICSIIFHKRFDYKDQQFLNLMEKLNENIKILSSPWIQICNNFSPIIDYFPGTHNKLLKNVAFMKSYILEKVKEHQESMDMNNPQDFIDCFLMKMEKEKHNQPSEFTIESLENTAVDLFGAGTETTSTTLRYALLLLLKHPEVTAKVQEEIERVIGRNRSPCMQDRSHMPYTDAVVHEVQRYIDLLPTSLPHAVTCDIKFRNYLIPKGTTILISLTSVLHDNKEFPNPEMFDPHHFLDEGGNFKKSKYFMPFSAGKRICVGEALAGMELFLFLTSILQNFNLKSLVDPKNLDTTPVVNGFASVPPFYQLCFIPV
Chain of Cytochrome P450 3A4 (P08684 whole entry): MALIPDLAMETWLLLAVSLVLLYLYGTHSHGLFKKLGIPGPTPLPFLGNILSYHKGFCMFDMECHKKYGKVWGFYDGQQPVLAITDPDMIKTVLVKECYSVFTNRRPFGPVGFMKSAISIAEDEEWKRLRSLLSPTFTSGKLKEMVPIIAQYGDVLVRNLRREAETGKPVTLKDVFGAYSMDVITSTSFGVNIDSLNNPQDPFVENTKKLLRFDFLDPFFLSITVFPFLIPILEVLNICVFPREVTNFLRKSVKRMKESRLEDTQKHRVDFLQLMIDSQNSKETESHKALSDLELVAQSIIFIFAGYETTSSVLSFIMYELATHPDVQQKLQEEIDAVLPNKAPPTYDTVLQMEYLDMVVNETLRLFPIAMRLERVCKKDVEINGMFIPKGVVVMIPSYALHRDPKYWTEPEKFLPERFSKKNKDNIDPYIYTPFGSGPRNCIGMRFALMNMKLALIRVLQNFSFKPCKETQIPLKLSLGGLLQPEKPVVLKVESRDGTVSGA
Chain of Cytochrome P450 2D6 (P10635 whole entry): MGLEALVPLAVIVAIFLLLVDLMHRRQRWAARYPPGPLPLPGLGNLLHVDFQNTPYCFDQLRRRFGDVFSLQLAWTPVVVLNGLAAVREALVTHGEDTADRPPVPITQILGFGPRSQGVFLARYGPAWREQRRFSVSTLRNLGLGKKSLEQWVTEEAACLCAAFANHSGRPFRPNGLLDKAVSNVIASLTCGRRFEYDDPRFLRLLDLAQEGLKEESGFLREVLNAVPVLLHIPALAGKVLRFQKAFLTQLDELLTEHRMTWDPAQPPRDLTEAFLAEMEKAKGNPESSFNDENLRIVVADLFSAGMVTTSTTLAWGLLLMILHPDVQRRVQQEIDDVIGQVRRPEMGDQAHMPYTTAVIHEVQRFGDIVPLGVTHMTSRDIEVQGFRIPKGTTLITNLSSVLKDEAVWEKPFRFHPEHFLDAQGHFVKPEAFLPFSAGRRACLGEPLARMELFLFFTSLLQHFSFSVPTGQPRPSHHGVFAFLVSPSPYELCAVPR

Take `COCCn1c(=O)c(-c2cccs2)nc2cncnc21`: the concentration at half-maximal activity (AC50) in assay [1] was 25.1 µM (inconclusive); in assay [2], 20 µM (inconclusive).

Consider `COc1cc2c(cc1OC)C(C(=O)N1CCN(c3ccccn3)CC1)C(c1cccs1)N(C)C2=O` (centres undefined), for which the AC50 in assay [2] was 17.8 µM (inconclusive).

In the case of `COc1ccc(Nc2nc(-c3cccc([N+](=O)[O-])c3)nc3ccccc23)cc1`, the EC50 in [3] is 1.71 µM (active); in [5], > 60 µM (not active). The concentration at half-maximal activity (AC50) in [4] is 2.83 µM (active).

Turning to `Sc1nnc(-c2ccc(Cl)cc2)n1Cc1ccccc1`, in [4], the AC50 is 0.734 µM (active).

Consider `O=c1cc(-c2ccc(O)cc2)oc2c([C@H]3O[C@@H](CO)[C@@H](O)[C@@H](O)[C@@H]3O)c(O)cc(O)c12`, for which the AC50 in assay [6] was 20 µM (inconclusive).

Turning to `Cc1cccc(-n2c(S)nnc2Cn2nc(C)c([N+](=O)[O-])c2C)c1`, the AC50 in assay [1] is 20 µM (inconclusive); in assay [2] it was 7.08 µM (inconclusive).

As to `O=C(O)c1cccc(SSc2cccc(C(=O)O)c2)c1`, the AC50 was 5.01 µM (inconclusive) in assay [6] and 2 µM (inconclusive) in assay [2].

As to `CCNc1ncc2nc(-c3ccc(OC)cc3)c(=O)n(Cc3cccc(OC)c3)c2n1`, the results for the AC50 in assay [6] and in assay [7] were 15.8 µM (inconclusive) and 25.1 µM (inconclusive), respectively.

Consider `COC(=O)[C@@]1(Cc2ccccc2)[C@H]2c3cc(C(=O)N(C)C)n(Cc4c(CO)ncc(C)c4O)c3C[C@H]2CN1C(=O)c1ccccc1`, for which, in assay [6], the AC50 was 25.1 µM (inconclusive).

In the case of `Cc1cc(OCC(F)(F)C(F)(F)C(F)(F)C(F)(F)C(F)(F)C(F)F)nc(N)n1`, the half-maximal activity concentration (AC50) in assay [6] was 28.2 µM (inconclusive).

In the case of `COc1cc(NC(=O)c2cc(Cl)ccc2Cl)ccc1-c1cc2ccccc2oc1=O`, the concentration at half-maximal activity (AC50) in [8] is 25.1 µM (inconclusive); in assay [6], 12.6 µM (inconclusive); in [7], 1 µM (inconclusive).

Consider `N#Cc1cccc(NC(=O)N2CCCC3(CCN(C(=O)c4cnccn4)CC3)C2)c1`, for which the half-maximal activity concentration (AC50) in [6] was 20 µM (inconclusive); in [7], 15.8 µM (inconclusive).

For the molecule `CCCCCCSc1cccc(-c2nc3ccc(C)cn3c2NCc2ccccc2)c1`, in assay [4], the AC50 is 3.14 µM (active).

In the case of `Cc1ccc(C(=O)CSc2nc(-c3ccccc3)ccc2C#N)cc1`, the AC50 in [4] is 3.28 µM (active).

As for `CC(C)n1c(N2CCN(C(=O)Nc3ccccc3)CC2)nc2ccccc21`, the AC50 in assay [1] is 22.4 µM (inconclusive); in assay [6], 25.1 µM (inconclusive).

On to `CC(C)(C)c1ccc(NS(=O)(=O)c2ccc(N)cc2)cc1`, for which the results for the concentration at half-maximal activity (AC50) in assay [6] and in assay [7] were 3.16 µM (inconclusive) and 1 µM (inconclusive), respectively.

As for `O=C(CSc1nccn1-c1ccccc1)c1ccc(Cl)cc1`, the results for the AC50 in assay [8] and in assay [2] were 3.16 µM (inconclusive) and 3.98 µM (inconclusive), respectively.

For `O=C1Oc2ccccc2C2(O)C3CCCCCC3C12` (centres undefined), the AC50 in assay [2] was 22.4 µM (inconclusive).

As to `O=C(CNC(=O)c1ccco1)OC(C(=O)c1ccccc1)c1ccccc1` (centres undefined), the AC50 in assay [6] was 15.8 µM (inconclusive); in assay [7], 28.2 µM (inconclusive).

Regarding `O=C(O)[C@H]1CCc2ccc3ccccc3c2[C@H]1c1cccc2ccccc12`, the concentration at half-maximal activity (AC50) in assay [2] was 7.94 µM (inconclusive).

Take `O=[N+]([O-])c1cccnc1N1CCCCC1`: the AC50 in assay [1] is 0.00562 µM (inconclusive); in assay [2] it was 3.16 µM (inconclusive).

Turning to `Cn1cccc1C(=O)N1CCC2(CC1)CCN(c1cccc(-c3ccccc3)c1)CC2`, the AC50 in [6] is 20 µM (inconclusive).

With `O=C(C1CCN(S(=O)(=O)c2cccc3nsnc23)CC1)N1CCn2c1nc1ccccc12`, the half-maximal activity concentration (AC50) in assay [8] is 17.8 µM (inconclusive); in [6], 20 µM (inconclusive); in assay [2], 25.1 µM (inconclusive).

Consider `C[C@H](CO)NC(=O)[C@H](C)[C@H]1C[C@]1(C)[C@H](NC(=O)OCc1ccccc1)c1ccccc1`, for which the AC50 in assay [8] was 15.8 µM (inconclusive); in assay [2], 25.1 µM (inconclusive).

On to `O=Nc1ccc(NOC(=O)c2ccc(Br)cc2)cc1`, for which the half-maximal activity concentration (AC50) in assay [2] is 25.1 µM (inconclusive).

Consider `C=CCSc1nn2c(=O)c3ccccc3nc2s1`, for which the AC50 in [8] and in assay [2] was 25.1 µM (inconclusive) throughout.

For `Cc1sc2nc(SCc3nc(-c4cccs4)no3)n(-c3ccccc3)c(=O)c2c1C`, the half-maximal activity concentration (AC50) was 14.1 µM (inconclusive) in assay [6] and 0.501 µM (inconclusive) in assay [2].

On to `CCC(=O)[C@@H](c1ccccc1)c1ccccn1`, for which the AC50 in [6] is 5.01 µM (inconclusive).

Turning to `CC(=O)Nc1ccc(C(=O)NNC(=O)CCc2ccccc2)cc1`, the AC50 in assay [2] was 39.8 µM (inconclusive).

With `CC(Nc1nc(-c2ccc(Cl)cc2)cs1)c1nc2cc(Cl)c(N3CCCCC3)cc2n1CCOCCO` (centres undefined), the AC50 in assay [4] was 1.1 µM (active).

Take `COc1ccc(-c2sc3ccccc3c2-c2ccc(OCCN3CCCCC3)cc2)cc1`: the AC50 is 0.914 µM (active) in assay [4] and 8.34 µM (active) in assay [9].

Turning to `CC(=CCOc1ccc2ccc(=O)oc2c1)C1=CC(=O)C(C)(C)O1`, the half-maximal activity concentration (AC50) in [10] was 4.95 µM (active).

Take `C[C@@H]1CCCCO[C@H](CN(C)C(=O)Cc2ccccc2)[C@H](C)CN([C@@H](C)CO)C(=O)c2cc(NC(=O)Nc3ccc(C(F)(F)F)cc3)ccc2O1`: the AC50 in [10] is 8.05 µM (active).

With `O=C(C[C@H]1CC[C@H]2[C@@H](COC[C@@H](O)CN2S(=O)(=O)c2ccccc2Cl)O1)N1CCC(Cc2ccccc2)CC1`, the AC50 in [10] is 23.7 µM (active).

With `CCCCCCc1c(O)noc1C[C@H](N)C(=O)O`, in assay [6], the concentration at half-maximal activity (AC50) is 25.1 µM (inconclusive) and 31.6 µM (inconclusive).

As to `Cc1ccc(S(=O)(=O)N(CC(=O)N/N=C/c2ccc(F)cc2)c2cccc3cccnc23)cc1`, the AC50 in [2] is 1.58 µM (inconclusive).

With `C/C(=N/NC(=O)Cc1cccn1C)c1ccccc1`, in [2], the AC50 is 25.1 µM (inconclusive).

For the molecule `CCOC(=O)C1=C(N)n2c(s/c(=C/c3ccccc3)c2=O)=C(C(=O)OCC)C1c1ccccc1` (centres undefined), the AC50 in assay [2] was 2.82 µM (inconclusive).

For the molecule `Cc1cccc(CNc2ncncc2-c2ccc(C(=O)N(C)C)cc2)c1`, the AC50 was 31.6 µM (inconclusive) in [1] and 15.8 µM (inconclusive) in assay [6].

As for `COc1cccc(-c2ccc3ncnc(NCc4cccs4)c3c2)c1`, the AC50 in [2] was 0.631 µM (inconclusive).

Turning to `CCCCCCN(CCCCCC)C(=O)Cc1c(-c2ccc(Cl)cc2)[nH]c2ccc(Cl)cc12`, the values for the AC50 in [1] and in assay [6] were 10 µM (inconclusive) and 31.6 µM (inconclusive), respectively.

On to `O=C(O)c1cc([N+](=O)[O-])ccc1NCCCc1ccccc1` [5-NITRO-2-PHENYLPROPYLAMINOBENZOIC ACID [NPPB]], for which the concentration at half-maximal activity (AC50) in assay [6] is 39.8 µM (inconclusive).
